Several values for one entry are separate records, joined by “and”; a condition that tells them apart may be missing. Equal values may be shown once. Inconclusive results and toxic doses are left out. Cut-off read from the data, not from the text of the source: active = T/C of 150% or more; inactive = T/C below 125%.
System: L1210 leukemia ip in BDF1 mice, survival T/C
Test: NCI In Vivo Anticancer Drug Screen. Data for tumor model L1210 Leukemia (intraperitoneal) in B6D2F1 (BDF1) mice
Conditions: endpoint: mean survival time, higher = longer survival
Outline: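 Mice bearing the transplanted tumor received compound or vehicle. Survival of the treated group was divided by that of the vehicle-treated control group to give the ratio.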

[1] = dose: 100.0 mg/kg/injection, schedule: Q01DX001 (ip), vehicle: saline
[2] = dose: 100.0 mg/kg/injection, schedule: Q01DX009 (ip), vehicle: saline with Tween-80
[3] = dose: 200.0 mg/kg/injection, schedule: Q01DX001 (ip), vehicle: saline
[4] = dose: 200.0 mg/kg/injection, schedule: Q01DX009 (ip), vehicle: saline with Tween-80
[5] = dose: 400.0 mg/kg/injection, schedule: Q01DX001 (ip), vehicle: saline
[6] = dose: 400.0 mg/kg/injection, schedule: Q01DX009 (ip), vehicle: saline with Tween-80
[7] = dose: 100.0 mg/kg/injection, schedule: Q04DX002 (ip), vehicle: Klucel (hydroxypropylcellulose) (HPC)
[8] = dose: 25.0 mg/kg/injection, schedule: Q01DX009 (ip), vehicle: Klucel (hydroxypropylcellulose) (HPC)
[9] = dose: 50.0 mg/kg/injection, schedule: Q01DX009 (ip), vehicle: Klucel (hydroxypropylcellulose) (HPC)
[10] = dose: 100.0 mg/kg/injection, schedule: Q01DX009 (ip), vehicle: Klucel (hydroxypropylcellulose) (HPC)
[11] = dose: 100.0 mg/kg/injection, schedule: Q04DX003 (ip), vehicle: Klucel (hydroxypropylcellulose) (HPC)
[12] = dose: 200.0 mg/kg/injection, schedule: Q01DX009 (ip), vehicle: Klucel (hydroxypropylcellulose) (HPC)
[13] = dose: 200.0 mg/kg/injection, schedule: Q04DX003 (ip), vehicle: Klucel (hydroxypropylcellulose) (HPC)
[14] = dose: 400.0 mg/kg/injection, schedule: Q04DX003 (ip), vehicle: Klucel (hydroxypropylcellulose) (HPC)
[15] = dose: 20.0 mg/kg/injection, schedule: Q04DX003 (ip), vehicle: Klucel (hydroxypropylcellulose) (HPC)
[16] = dose: 40.0 mg/kg/injection, schedule: Q04DX003 (ip), vehicle: Klucel (hydroxypropylcellulose) (HPC)
[17] = dose: 80.0 mg/kg/injection, schedule: Q04DX003 (ip), vehicle: Klucel (hydroxypropylcellulose) (HPC)

Measured: T/C

COC1CC(O)C(O)C(C)O1 (configuration not stated)
inactive: [1] 93 % of control | [2] 100 % of control | dose: 100.0 mg/kg/injection, schedule: Q04DX003 (ip), vehicle: saline with Tween-80 91 % of control | [3] 96 % of control | [4] 91 % of control | dose: 200.0 mg/kg/injection, schedule: Q04DX003 (ip), vehicle: saline with Tween-80 108 % of control | [5] 98 % of control | [6] 89 % of control | dose: 400.0 mg/kg/injection, schedule: Q04DX003 (ip), vehicle: saline with Tween-80 100 % of control

Cc1cc(C)c2c(c1)CC2N (configuration not stated)
inactive: dose: 25.0 mg/kg/injection, schedule: Q04DX002 (ip), vehicle: Klucel (hydroxypropylcellulose) (HPC) 95 % of control | dose: 50.0 mg/kg/injection, schedule: Q04DX002 (ip), vehicle: Klucel (hydroxypropylcellulose) (HPC) 95 % of control | [7] 95 % of control and 103 % of control

C#CCC1(OC(N)=O)CCCCC1
inactive: [8] 96 % of control | dose: 25.0 mg/kg/injection, schedule: Q04DX003 (ip), vehicle: Klucel (hydroxypropylcellulose) (HPC) 102 % of control | [9] 96 % of control | dose: 50.0 mg/kg/injection, schedule: Q04DX003 (ip), vehicle: Klucel (hydroxypropylcellulose) (HPC) 110 % of control | [10] 110 % of control | [11] 100 % of control | [12] 87 % of control | [13] 107 % of control | [14] 94 % of control

O=C(O)/C=C/c1ccccn1
inactive: [15] 102 % of control | [16] 100 % of control | [17] 94 % of control | [11] 93 % of control | [13] 100 % of control

CC(C#N)N(C)C (configuration not stated)
inactive: dose: 5.0 mg/kg/injection, schedule: Q01DX001 (ip), vehicle: saline 96 % of control | dose: 10.0 mg/kg/injection, schedule: Q01DX001 (ip), vehicle: saline 104 % of control | dose: 10.0 mg/kg/injection, schedule: Q01DX009 (ip), vehicle: saline 98 % of control | dose: 20.0 mg/kg/injection, schedule: Q01DX001 (ip), vehicle: saline 102 % of control | dose: 20.0 mg/kg/injection, schedule: Q01DX009 (ip), vehicle: saline 109 % of control | dose: 40.0 mg/kg/injection, schedule: Q01DX009 (ip), vehicle: saline 98 % of control

O=C(CCCC(=O)N/N=C/c1ccc([N+](=O)[O-])cc1)N/N=C\c1ccc([N+](=O)[O-])cc1
inactive: dose: 50.0 mg/kg/injection, schedule: Q01DX001 (ip), vehicle: saline 93 % of control | [1] 100 % of control | [3] 103 % of control | [5] 103 % of control

CC12CCC(=O)N1C(C(=O)O)CS2 (configuration not stated)
inactive: dose: 100.0 mg/kg/injection, schedule: Q04DX002 (ip), vehicle: saline 91 % of control | dose: 200.0 mg/kg/injection, schedule: Q04DX002 (ip), vehicle: saline 102 % of control | dose: 400.0 mg/kg/injection, schedule: Q04DX002 (ip), vehicle: saline 98 % of control

O=C(O)C1C(=O)Oc2c(cccc2[N+](=O)[O-])C1O (configuration not stated)
inactive: dose: 100.0 mg/kg/injection, schedule: Q01DX001 (ip), vehicle: carboxymethylcellulose (CMC) 94 % of control | dose: 200.0 mg/kg/injection, schedule: Q01DX001 (ip), vehicle: carboxymethylcellulose (CMC) 92 % of control | dose: 400.0 mg/kg/injection, schedule: Q01DX001 (ip), vehicle: carboxymethylcellulose (CMC) 92 % of control

Nc1ccc(CCc2ccc(N)cc2[N+](=O)[O-])c([N+](=O)[O-])c1
inactive: [10] 101 % of control | [11] 96 % of control | [12] 101 % of control | [13] 109 % of control | dose: 400.0 mg/kg/injection, schedule: Q01DX009 (ip), vehicle: Klucel (hydroxypropylcellulose) (HPC) 92 % of control | [14] 90 % of control

COc1ccc(F)cc1CCl
inactive: [7] 98 % of control | dose: 200.0 mg/kg/injection, schedule: Q04DX002 (ip), vehicle: Klucel (hydroxypropylcellulose) (HPC) 98 % of control | dose: 400.0 mg/kg/injection, schedule: Q04DX002 (ip), vehicle: Klucel (hydroxypropylcellulose) (HPC) 86 % of control

O=C(CCl)c1ccc(Oc2ccccc2)cc1
inactive: dose: 20.0 mg/kg/injection, schedule: Q01DX009 (ip), vehicle: Klucel (hydroxypropylcellulose) (HPC) 103 % of control | [15] 107 % of control | dose: 40.0 mg/kg/injection, schedule: Q01DX009 (ip), vehicle: Klucel (hydroxypropylcellulose) (HPC) 100 % of control | [16] 104 % of control | [17] 105 % of control | [11] 89 % of control

O=C(COc1c(Cl)cc(Cl)cc1Cl)NCc1ccc(Cl)cc1
inactive: [2] 100 % of control | [4] 109 % of control | [6] 101 % of control

CN(C)C(=S)SCC(=O)c1ccccc1
inactive: dose: 2.5 mg/kg/injection, schedule: Q01DX009 (ip), vehicle: saline with Tween-80 93 % of control | dose: 5.0 mg/kg/injection, schedule: Q01DX009 (ip), vehicle: saline with Tween-80 89 % of control | dose: 10.0 mg/kg/injection, schedule: Q01DX009 (ip), vehicle: saline with Tween-80 105 % of control

NCCSC1(O)C(=O)c2ccccc2C1=O
inactive: dose: 37.5 mg/kg/injection, schedule: Q04DX003 (ip), vehicle: saline 97 % of control | dose: 75.0 mg/kg/injection, schedule: Q01DX001 (ip), vehicle: saline 104 % of control | dose: 75.0 mg/kg/injection, schedule: Q04DX003 (ip), vehicle: saline 116 % of control | dose: 150.0 mg/kg/injection, schedule: Q01DX001 (ip), vehicle: saline 110 % of control | dose: 150.0 mg/kg/injection, schedule: Q04DX003 (ip), vehicle: saline 111 % of control

CC1(C)/C(=C/c2ccccc2)C(=O)c2ccccc21
inactive: dose: 100.0 mg/kg/injection, schedule: Q01DX009 (ip), vehicle: saline 101 % of control | dose: 100.0 mg/kg/injection, schedule: Q04DX003 (ip), vehicle: saline 96 % of control | dose: 200.0 mg/kg/injection, schedule: Q01DX009 (ip), vehicle: saline 96 % of control | dose: 200.0 mg/kg/injection, schedule: Q04DX003 (ip), vehicle: saline 98 % of control | dose: 400.0 mg/kg/injection, schedule: Q01DX009 (ip), vehicle: saline 102 % of control | dose: 400.0 mg/kg/injection, schedule: Q04DX003 (ip), vehicle: saline 102 % of control

O=C(O)CCCC(=O)CCCC(=O)O
inactive: [1] 98 % of control | [3] 93 % of control | [5] 104 % of control

CC1CC(NC(=S)S)CC(C)(C)C1 (configuration not stated)
inactive: [8] 93 % of control | [9] 95 % of control | [10] 97 % of control | [11] 93 % of control | [13] 96 % of control

From PubChem BioAssay AID248 (DTP/NCI, 2004)
